Test results as given in patent publication EP2716637A1, “MANGIFERIN AGLYCONE CRYSTAL FORM I AND PREPARATION METHOD THEREOF” (Kunming Pharmaceutical Corp., priority 2011, dated 2012).
Like-named read-outs stand apart in the source and are kept apart here. One block for each molecule: values may come before it.

Experiments:
[1] = Active destructing test (stability) with HPLC analysis; type: physicochemical
Description: Active destructing test of mangiferin aglycone crystal form I: high purity mangiferin aglycone obtained in the same batch was respectively subjected to the following treatments: • (1) Destruction by strong acid: 0.5 mg sample was precisely weighed in a 50 ml measuring flask, and 1 ml of 0.1 mol/L hydrochloric acid aqueous solution was added, mixed evenly, and was allowed to stand for 48 hours at 20~30°C; • (2) Destruction by strong base: 0.5 mg sample was precisely weighed in a 50 ml measuring flask, and 1 ml of 0.1 mol/L sodium hydroxide aqueous solution was added, mixed evenly, and was allowed to stand for 48 hours at 20~30°C; • (3) Destruction by strong oxidant: 0.5 mg sample was precisely weighed in a 50 ml measuring flask, and 1 ml of 10% aqueous solution of hydrogen peroxide (H2O2) was added, mixed evenly, and was allowed to stand for 48 hours at 20~30°C; • (4) Destruction by high temperature: 0.5 mg sample was precisely weighed in a 50 ml measuring flask, and was allowed to stand for 48 hours at 100°C; • (5) Destruction by strong light: 0.5 mg sample was precisely weighed in a 50 ml measuring flask, and was allowed to stand for 240 hours under strong light condition of 4500±500 lux. The above-mentioned testing samples were taken out at specified time points, and methanol was added to dissolve and diluted the sample to the scale mark, shook well, then […] samples were analyzed by HPLC.
Stability test of mangiferin aglycone crystal form I

[2] = Blood concentration after oral (intragastric) administration to Beagle dogs; type: in vivo; conditions: for concentration: listed as Commercially available mangiferin aglycone
Description: Solid powder of mangiferin aglycone crystal form I and commercially available mangiferin aglycone (reference substance of mangiferin aglycone, purchased from Sigma Corporation, Lot No.: 8420-201002) were administered to Beagle dogs intragastrically respectively. The dosage of administration was 6mg/kg, and arterial blood of the dogs was drawn at different time points after administration to determine the content of mangiferin aglycone (See Table 4 and Figure 6). Table 4. Comparison of blood concentrations at different time points after mangiferin aglycone samples were administered orally to Beagle dogs

[3] = Stability of solutions in alkaline phosphate buffer, content by HPLC; type: physicochemical; conditions: for remaining at 2 h / remaining at 4 h / remaining at 6 h / remaining at 8 h / remaining at 12 h: phosphate buffer, read-out: content of mangiferin aglycone
Description: Appropriate amounts of mangiferin aglycone crystal form I and mangiferin aglycone were taken respectively, and phosphate buffer of pH 8.0, pH 9.0 and pH 10.0 were added respectively, metered to 100 ml, and were allowed to stand at 37°C, and samples were taken at 2, 4, 6, 8 and 12 hours respectively, and the content of mangiferin aglycone were measured by HPLC method. Stability of solution of mangiferin aglycone crystal form I

[4] = biological target: T1, recombinant humanized protein tyrosine phosphatase 1B (Homo sapiens, UniProt P18031); conditions: reported from CN200910184185.5; cited from earlier work
T1 sequence (P18031 1-435): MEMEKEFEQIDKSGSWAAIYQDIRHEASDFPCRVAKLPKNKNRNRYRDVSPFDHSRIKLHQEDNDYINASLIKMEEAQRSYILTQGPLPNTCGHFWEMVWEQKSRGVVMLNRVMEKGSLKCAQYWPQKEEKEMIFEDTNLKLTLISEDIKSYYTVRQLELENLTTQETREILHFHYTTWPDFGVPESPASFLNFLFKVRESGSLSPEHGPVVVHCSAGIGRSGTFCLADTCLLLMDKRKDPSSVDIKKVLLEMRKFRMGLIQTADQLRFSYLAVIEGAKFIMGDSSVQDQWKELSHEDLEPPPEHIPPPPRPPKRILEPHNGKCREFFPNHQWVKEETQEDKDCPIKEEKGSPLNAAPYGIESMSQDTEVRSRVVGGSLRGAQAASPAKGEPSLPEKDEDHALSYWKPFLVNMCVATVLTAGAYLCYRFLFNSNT

C57BL/6 normal mouse = conditions: reported from CN200810196777.4, cited from earlier work
[5] = test system: C57BL/6 normal mice and ob/ob diabetes model mice; conditions: cited from earlier work
[6] = destructing by high temperature: 48 hours at 100°C
[7] = destructing by strong acid: 0.1 mol/L hydrochloric acid, 48 hours at 20~30°C
[8] = destructing by strong base: 0.1 mol/L sodium hydroxide, 48 hours at 20~30°C
[9] = destructing by strong light: 240 hours at 4500±500 lux
[10] = destructing by strong oxidant: 10% hydrogen peroxide, 48 hours at 20~30°C

- stability to light, moisture, heat ([1]; conclusion from the active destructing test): stable
- peak area of mangiferin aglycone [1, 6]: 233
- peak area of mangiferin aglycone [1, 7]: 234
- peak area of mangiferin aglycone [1, 8]: 0
- peak area of mangiferin aglycone [1, 9]: 234
- peak area of mangiferin aglycone [1, 10]: 215
- situations of other degradation products [1, 10]: One new degradation product was found
- peak area of mangiferin aglycone ([1]; undestructed (baseline sample)): 234
- concentration at 0.25 h ([2]; dog, serum, po, 6 mg/kg, intragastrically, 6mg/kg, solid powder, 0.25 hr, read-out: Mangiferin aglycone concentration in serum): 721 nM
- concentration at 0.5 h ([2]; dog, serum, po, 6 mg/kg, intragastrically, 6mg/kg, solid powder, 0.5 hr, read-out: Mangiferin aglycone concentration in serum): 470 nM
- concentration at 0.75 h ([2]; dog, serum, po, 6 mg/kg, intragastrically, 6mg/kg, solid powder, 0.75 hr, read-out: Mangiferin aglycone concentration in serum): 601 nM
- concentration at 1 h ([2]; dog, serum, po, 6 mg/kg, intragastrically, 6mg/kg, solid powder, 1 hr, read-out: Mangiferin aglycone concentration in serum): 387 nM
- concentration at 1.5 h ([2]; dog, serum, po, 6 mg/kg, intragastrically, 6mg/kg, solid powder, 1.5 hr, read-out: Mangiferin aglycone concentration in serum): 163 nM
- concentration at 2 h ([2]; dog, serum, po, 6 mg/kg, intragastrically, 6mg/kg, solid powder, 2 hr, read-out: Mangiferin aglycone concentration in serum): 158 nM
- concentration at 3 h ([2]; dog, serum, po, 6 mg/kg, intragastrically, 6mg/kg, solid powder, 3 hr, read-out: Mangiferin aglycone concentration in serum): 119 nM
- concentration at 4 h ([2]; dog, serum, po, 6 mg/kg, intragastrically, 6mg/kg, solid powder, 4 hr, read-out: Mangiferin aglycone concentration in serum): 96 nM
- concentration at 6 h ([2]; dog, serum, po, 6 mg/kg, intragastrically, 6mg/kg, solid powder, 6 hr, read-out: Mangiferin aglycone concentration in serum): 84.4 nM
- concentration at 8 h ([2]; dog, serum, po, 6 mg/kg, intragastrically, 6mg/kg, solid powder, 8 hr, read-out: Mangiferin aglycone concentration in serum): 80.8 nM
- oral bioavailability ([2]; same oral dosage, compared with commercially available mangiferin aglycone): higher
- stability of solution ([3]; different alkaline phosphate buffer solutions, compared with mangiferin aglycone): better
- remaining at 2 h ([3]; pH 8, phosphate buffer pH8, 37°C, standing time 2h): 98.6%
- remaining at 4 h ([3]; pH 8, phosphate buffer pH8, 37°C, standing time 4h): 98.4%
- remaining at 6 h ([3]; pH 8, phosphate buffer pH8, 37°C, standing time 6h): 98.3%
- remaining at 8 h ([3]; pH 8, phosphate buffer pH8, 37°C, standing time 8h): 98.2%
- remaining at 12 h ([3]; pH 8, phosphate buffer pH8, 37°C, standing time 12h): 97.5%
- remaining at 2 h ([3]; pH 9, phosphate buffer pH9, 37°C, standing time 2h): 98.5%
- remaining at 4 h ([3]; pH 9, phosphate buffer pH9, 37°C, standing time 4h): 98.2%
- remaining at 6 h ([3]; pH 9, phosphate buffer pH9, 37°C, standing time 6h): 98%
- remaining at 8 h ([3]; pH 9, phosphate buffer pH9, 37°C, standing time 8h): 97.8%
- remaining at 12 h ([3]; pH 9, phosphate buffer pH9, 37°C, standing time 12h): 97.2%
- remaining at 2 h ([3]; pH 10, phosphate buffer pH10, 37°C, standing time 2h): 97.2%
- remaining at 4 h ([3]; pH 10, phosphate buffer pH10, 37°C, standing time 4h): 97.4%
- remaining at 6 h ([3]; pH 10, phosphate buffer pH10, 37°C, standing time 6h): 97%
- remaining at 8 h ([3]; pH 10, phosphate buffer pH10, 37°C, standing time 8h): 96.3%
- remaining at 12 h ([3]; pH 10, phosphate buffer pH10, 37°C, standing time 12h): 95%
SMILES: O=c1c2cc(O)c(O)cc2oc2cc(O)cc(O)c12 [mangiferin aglycone crystal form I, 1,3,6,7-tetrahydroxyxanthone]
- situations of other degradation products [1, 6]: No new peak for degradation product was found
- situations of other degradation products [1, 7]: No new peak for degradation product was found
- situations of other degradation products [1, 8]: UV shift occurred, and there were many peaks for degradation products
- situations of other degradation products [1, 9]: No peak for degradation product was found
- situations of other degradation products ([1]; undestructed (baseline sample)): No new peak for degradation product was found

- concentration ([2]; intragastrically, 6mg/kg, solid powder, 0.25 hr, 6 mg/kg, 15 min, read-out: Mangiferin aglycone concentration in serum): 666 nM
- concentration ([2]; intragastrically, 6mg/kg, solid powder, 0.5 hr, 6 mg/kg, 30 min, read-out: Mangiferin aglycone concentration in serum): 404 nM
- concentration ([2]; intragastrically, 6mg/kg, solid powder, 0.75 hr, 6 mg/kg, 45 min, read-out: Mangiferin aglycone concentration in serum): 414 nM
- concentration ([2]; intragastrically, 6mg/kg, solid powder, 1 hr, 6 mg/kg, 60 min, read-out: Mangiferin aglycone concentration in serum): 366 nM
- concentration ([2]; intragastrically, 6mg/kg, solid powder, 1.5 hr, 6 mg/kg, 90 min, read-out: Mangiferin aglycone concentration in serum): 136 nM
- concentration ([2]; intragastrically, 6mg/kg, solid powder, 2 hr, 6 mg/kg, 120 min, read-out: Mangiferin aglycone concentration in serum): 108 nM
- concentration ([2]; intragastrically, 6mg/kg, solid powder, 3 hr, 6 mg/kg, 180 min, read-out: Mangiferin aglycone concentration in serum): 100 nM
- concentration ([2]; intragastrically, 6mg/kg, solid powder, 4 hr, 6 mg/kg, 240 min, read-out: Mangiferin aglycone concentration in serum): 70.1 nM
- concentration ([2]; intragastrically, 6mg/kg, solid powder, 6 hr, 6 mg/kg, 360 min, read-out: Mangiferin aglycone concentration in serum): 52.6 nM
- concentration ([2]; intragastrically, 6mg/kg, solid powder, 8 hr, 6 mg/kg, 480 min, read-out: Mangiferin aglycone concentration in serum): 41.3 nM
- blood concentration ([2]; same oral dosage, compared with mangiferin aglycone crystal form I): significantly lower
- content of mangiferin aglycone ([3]; phosphate buffer pH8, 37°C, standing time 2h, 120 min): 98.5%
- content of mangiferin aglycone ([3]; phosphate buffer pH8, 37°C, standing time 4h, 240 min): 97.5%
- content of mangiferin aglycone ([3]; phosphate buffer pH8, 37°C, standing time 6h, 360 min): 96.3%
- content of mangiferin aglycone ([3]; phosphate buffer pH8, 37°C, standing time 8h, 480 min): 94.5%
- content of mangiferin aglycone ([3]; phosphate buffer pH8, 37°C, standing time 12h, 720 min): 93.2%
- content of mangiferin aglycone ([3]; phosphate buffer pH9, 37°C, standing time 2h, 120 min): 97.3%
- content of mangiferin aglycone ([3]; phosphate buffer pH9, 37°C, standing time 4h, 240 min): 94.3%
- content of mangiferin aglycone ([3]; phosphate buffer pH9, 37°C, standing time 6h, 360 min): 93.4%
- content of mangiferin aglycone ([3]; phosphate buffer pH9, 37°C, standing time 8h, 480 min): 92.3%
- content of mangiferin aglycone ([3]; phosphate buffer pH9, 37°C, standing time 12h, 720 min): 91.0%
- content of mangiferin aglycone ([3]; phosphate buffer pH10, 37°C, standing time 2h, 120 min): 97.7%
- content of mangiferin aglycone ([3]; phosphate buffer pH10, 37°C, standing time 4h, 240 min): 93.8%
- content of mangiferin aglycone ([3]; phosphate buffer pH10, 37°C, standing time 6h, 360 min): 92.1%
- content of mangiferin aglycone ([3]; phosphate buffer pH10, 37°C, standing time 8h, 480 min): 91.0%
- content of mangiferin aglycone ([3]; phosphate buffer pH10, 37°C, standing time 12h, 720 min): 90.3%
SMILES: O=c1c2cc(O)c(O)cc2oc2cc(O)cc(O)c12 [mangiferin aglycone, 1,3,6,7-tetrahydroxyxanthone]
- type of inhibition [4]: competitive inhibitor
- in vivo secretion of insulin induced by glucose (C57BL/6 normal mouse; C57BL/6-normal mouse): increase
- IGTT (C57BL/6 normal mouse; C57BL/6 normal mouse): significantly improve
- blood glucose of the experimental animal [5]: reduce
- sensitivity to insulin [5]: significantly improve
